From the supplement of paper PMC11061612

Key:
Assay in all cases: combination Emax (second highest fraction inhibited in the dose matrix, 72 h); higher = more inhibition; extreme values may be limits of the assay
[1] = tested on: CW-2 (Colorectal Carcinoma)
Summary of the method: (§1)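 After 24 hours at 37°C and 5% CO2 in 1536-well plates, cells in DMEM/F12 or RPMI plus 10% FBS received two-drug dose matrices for 72 hours. Viability came from CellTiter-Glo 2.0 luminescence and was scaled as inhibition, anchored at 0 by vehicle wells and at 1 by blank wells. Combination Emax is taken as the second-highest inhibition in the matrix, and Bliss excess as the observed combination effect less EA + EB − EA·EB, with EA and EB the single-agent effects.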

[2] = tested on: DAN-G (Pancreatic Carcinoma)
Summary of the method: as §1

[3] = tested on: ESO51 (Esophageal Adenocarcinoma)
Summary of the method: as §1

[4] = tested on: H9 (T-Cell Non-Hodgkin's Lymphoma)
Summary of the method: as §1

[5] = tested on: HCC1419 (Breast Carcinoma)
Summary of the method: as §1

[6] = tested on: KMS-12-BM (Plasma Cell Myeloma)
Summary of the method: as §1

[7] = tested on: KP-3 (Pancreatic Carcinoma)
Summary of the method: as §1

[8] = tested on: KU812 (Chronic Myelogenous Leukemia)
Summary of the method: as §1

[9] = tested on: KY821 (Acute Myeloid Leukemia)
Summary of the method: as §1

[10] = tested on: KYSE-270 (Esophageal Squamous Cell Carcinoma)
Summary of the method: as §1

[11] = tested on: MOG-G-CCM (Low Grade Glioma)
Summary of the method: as §1

[12] = tested on: NCCIT (Other Solid Carcinomas)
Summary of the method: as §1

[13] = tested on: NCI-H3122 (Lung Adenocarcinoma)
Summary of the method: as §1

[14] = tested on: NCI-H661 (Non-Small Cell Lung Carcinoma)
Summary of the method: as §1

RD (Rhabdomyosarcoma) = tested on: RD (Rhabdomyosarcoma)
Summary of the method: as §1

[15] = tested on: RPMI-8226 (Plasma Cell Myeloma)
Summary of the method: as §1

[16] = tested on: SK-GT-4 (Esophageal Adenocarcinoma)
Summary of the method: as §1

[17] = tested on: SNU-398 (Hepatocellular Carcinoma)
Summary of the method: as §1

[18] = tested on: SU-DHL-5 (B-Cell Non-Hodgkin's Lymphoma)
Summary of the method: as §1

[19] = tested on: SUP-B15 (B-Lymphoblastic Leukemia)
Summary of the method: as §1

| SMILES | combination Emax [1] | combination Emax [2] | combination Emax [3] | combination Emax [4] | combination Emax [5] | combination Emax [6] | combination Emax [7] | combination Emax [8] | combination Emax [9] | combination Emax [10] | combination Emax [11] | combination Emax [12] | combination Emax [13] | combination Emax [14] | combination Emax (RD (Rhabdomyosarcoma)) | combination Emax [15] | combination Emax [16] | combination Emax [17] | combination Emax [18] | combination Emax [19] |
| --- | --- | --- | --- | --- | --- | --- | --- | --- | --- | --- | --- | --- | --- | --- | --- | --- | --- | --- | --- | --- |
| C=CCn1c(=O)c2cnc(Nc3ccc(N4CCN(C)CC4)cc3)nc2n1-c1cccc(C(C)(C)O)n1 [AZD1775] + C1CN(CCC1(C(=O)N[C@@H](CCO)C2=CC=C(C=C2)Cl)N)C3=NC=NC4=C3C=CN4 [Capivasertib] (first compound max 3 µM, partner max 3 µM) | 0.522 | 0.848 | 0.814 | 0.95 | 0.282 | 0.984 | 0.28 | 0.912 | 0.994 | 0.85 | 0.748 | 0.963 | 0.622 | 0.648 | 0.797 | 0.822 | 0.596 | 0.786 | 0.99 | 0.954 |
| Cc1cc2ncnn2cc1Nc1ncc2c(n1)n(C1CCOCC1)c(=O)n2C [AZD7648] + C[C@@H]1COCCN1C2=NC(=NC(=C2)C3(CC3)[S@](=N)(=O)C)C4=C5C=CNC5=NC=C4 [AZD6738] (first compound max 10 µM, 7x7, partner max 10 µM) | 0.461 | 0.643 | 0.744 | 0.964 | 0.327 | 0.926 | 0.296 | 0.769 | 0.92 | 0.717 | 0.577 | 0.641 | 0.751 | 0.56 | 0.246 | 0.855 | 0.576 | 0.46 | 1 | 0.848 |
| COc1cc2c(cc1OCCCCCOc1cc3c(cc1OC)C(=O)N1C=C(C)C[C@H]1C=N3)N=C[C@@H]1CC(C)=CN1C2=O [SG3199] + O=C(c1cc(Cc2n[nH]c(=O)c3ccccc23)ccc1F)N1CCN(C(=O)C2CC2)CC1 [Olaparib] (first compound max 0.001 µM, 7x7, partner max 10 µM) | 0.0839 | 0.137 | 0.138 | 0.0468 | 0.0746 | 0.136 | 0.027 | 0.192 | 0.101 | 0.228 | 0.0595 | 0.0982 | 0.172 | 0.133 | 0.0922 | 0.165 | 0.104 | 0.175 | 0.958 | 0.921 |
| COc1cccc(OCCCN)c1-c1cc(Nc2cnc(C#N)cn2)n[nH]1 [Prexasertib] + CN(C)CCCOc1ccc(-c2ccc3ncc4c(c3c2)n(C2CCOCC2)c(=O)n4C)cn1 [AZD0156] (first compound max 1 µM, 7x7, partner max 1 µM) | 0.401 | 0.824 | 0.788 | 1 | 0.258 | 1 | 0.513 | 0.782 | 1 | 1 | 0.699 | 0.833 | 0.697 | 0.744 | 0.536 | 1 | 0.724 | 0.436 | 1 | 0.959 |
| Cn1cnc2c(F)c(Nc3ccc(Br)cc3Cl)c(C(=O)NOCCO)cc21 [Selumetinib] + C=CCn1c(=O)c2cnc(Nc3ccc(N4CCN(C)CC4)cc3)nc2n1-c1cccc(C(C)(C)O)n1 [AZD1775] (first compound max 10 µM, partner max 1 µM) | 0.464 | 0.811 | 0.681 | 1 | 0.0435 | 0.916 | 0.274 | 0.965 | 1 | 0.723 | 0.357 | 0.773 | 0.78 | 0.553 | 0.669 | 0.438 | 0.528 | 0.784 | 0.984 | 0.915 |
| C[C@@H](c1ccc2nccn2c1)n1nnc2ncc(-c3cnn(C)c3)nc21 [Savolitinib] + Cc1c2c(nn1C)CSCc1cc(n(C)n1)CSc1cc(c3ccccc3c1)OCCCc1c(C(=O)O)n(C)c3c-2c(Cl)ccc13 [AZD5991] (first compound max 1 µM, 7x7, partner max 1 µM) | 0.157 | 0.195 | 0.977 | 0.342 | 0.255 | 1 | 0.235 | 0.708 | 1 | 0.652 | 0.212 | 0.457 | 0.188 | 0.491 | 0.21 | 0.983 | 0.14 | 0.936 | 1 | 0.678 |
| Cc1c2c(nn1C)CSCc1cc(n(C)n1)CSc1cc(c3ccccc3c1)OCCCc1c(C(=O)O)n(C)c3c-2c(Cl)ccc13 [AZD5991] + CC1(C)CCC(CN2CCN(c3ccc(C(=O)NS(=O)(=O)c4ccc(NCC5CCOCC5)c([N+](=O)[O-])c4)c(Oc4cnc5[nH]ccc5c4)c3)CC2)=C(c2ccc(Cl)cc2)C1 [Venetoclax] (first compound max 1 µM, 7x7, partner max 1 µM) | 0.151 | 0.247 | 0.187 | 0.693 | 0.275 | 1 | 0.129 | 0.902 | 1 | 0.822 | 0.433 | 0.692 | 0.275 | 0.561 | 0.553 | 1 | 0.2 | 1 | 1 | 1 |
